Measured values as given in US20220016200A1, “PHARMACEUTICAL COMPOSITION FOR THE TREATMENT OF CYSTIC FIBROSIS” (GALENUS G.H. AG, priority 2018, published 2022).

Legend:
[1] = system: A. nosocomialis 1461911; assay: Checkerboard colistin sulphate (CS) plus teicoplanin (TP), MIC/FIC and MBC/FBC; format: cell-based, Acinetobacter nosocomialis; details: agent alone, CAMHB, 5*10^5 CFU/ml
Procedure: (§1) Checkerboard analysis to determine minimal inhibitory concentration (MIC)/fractional inhibitory concentration (FIC) and minimal […] (MBC)/fractional […] (FBC) values of colistin sulphate (CS) plus teicoplanin (TP) for 6 Gram-negative strains with a bacterial load 5(1-10)*10^5 CFU/ml in a cation-adjusted Mueller-Hinton broth (CAMHB). • a. Antimicrobial stock solutions were prepared using sterile distilled water • b. CS was added along the ordinate; TP was added along the abscissa to 96 well, flat bottom, polystyrene panels with no treatment. Colistin alone was tested in triplicates. • c. Serial 2-fold dilutions starting with 640 μg/ml CS and 640 μg/ml TP were made; 15 μl volume of the serial dilutions were added for each agent to the appropriate wells; final volume at 30 μl • d. For each agent tested alone an additional 15 μl media was added to the well. 30 μl were added in control wells where none of the agent was tested. The negative control well contains 150 μl media without any additions • e. From an overnight bacterial culture in tryptic soy broth, 100 μL was added to 10 mL of fresh tryptic soy broth. This was then incubated at 37° C. for 1.5 hour at 180 rpm. • f. Bacteria in 120 μl CAMHB were added to each well (end concentration 5(1-10)*10^5 CFU/ml) • g. Plates were incubated at 37° C. in an ambient air incubator for 24 h • h. Turbidity at OD600 is determined with a plate photometer • i. By using a one-time inoculator 3 μl from each well of the 96-well plate were transferred to three blood agar plates. The plates were incubated over night at 37° C. in an ambient air incubator • j. MIC values are defined as lowest concentration which restricts bacterial growth to OD600 ≤0.1 • k. MBC values were determined by visual reading the lowest concentration which inhibits 99.9% of the growth of bacteria in the wells • l. Determination of the fractional inhibitory concentration (FIC) index and fractional bactericidal concentration (FBC) index and characterization of antimicrobial interactions was assessed […]
(§2) FIC calculation was carried out as: (MIC of drug A, tested in combination)/(MIC of drug A, tested alone)+(MIC of drug B, tested in combination)/(MIC of drug B, tested alone). FBC calculation was carried out just as well […]
(§3) Interactive categories were calculated from checkerboard analysis using MIC results from testing each agent alone and MIC results from the combination wells adjacent to the wells with growth in them […]
b. Indifference; FIC/FBC>0.5 to<4.0 c. Antagonism; FIC/FBC≥4.0 b. A. nosocomialis 1461911 (IHMA), colistin resistant

[2] = system: A. haemolyticus 1655843; assay: as above; format: cell-based, Acinetobacter haemolyticus; details: agent alone, CAMHB, 5*10^5 CFU/ml
Procedure: as §1, §2, §3
b. Indifference; FIC/FBC>0.5 to<4.0 c. Antagonism; FIC/FBC≥4.0 c. A. haemolyticus 1655843 (IHMA), colistin resistant

[3] = in vivo; cited from earlier work
[4] = system: S. maltophilia 1221783; assay: Checkerboard colistin sulphate (CS) plus teicoplanin (TP), MIC/FIC and MBC/FBC; format: cell-based, Stenotrophomonas maltophilia; details: agent alone, CAMHB, 5*10^5 CFU/ml, 24 h
Procedure: as §1, with “MIC values are defined as lowest concentration which restricts bacterial growth to OD600 ≤0.1 • k. MBC values were determined by visual reading the lowest concentration which inhibits 99.9% of the growth of bacteria in the wells • l.” left out
as §3

[5] = system: A. guillouiae 1285286; assay: as above; format: cell-based, Acinetobacter guillouiae; details: agent alone, CAMHB, 5*10^5 CFU/ml
Procedure: as §1, §2, §3
b. Indifference; FIC/FBC>0.5 to<4.0 c. Antagonism; FIC/FBC≥4.0 d. A. guillouiae 1285286 (IHMA), colistin resistant

[6] = system: A. junii 1397597; assay: as above; format: cell-based, Acinetobacter junii; details: agent alone, CAMHB, 5*10^5 CFU/ml
Procedure: as §1, with “MIC values are defined as lowest concentration which restricts bacterial growth to OD600 ≤0.1 • k. MBC values were determined by visual reading the lowest concentration which inhibits 99.9% of the growth of bacteria in the wells • l.” left out
as §3

[7] = system: S. maltophilia 1237289; assay: as above; format: cell-based, Stenotrophomonas maltophilia; details: S. maltophilia 1237289, agent alone, CAMHB, 5*10^5 CFU/ml
Procedure: as §1, with “Plates were incubated at 37° C. in an ambient air incubator for 24 h • h.” left out
as §2, §3
b. Indifference; FIC/FBC>0.5 to<4.0 c. Antagonism; FIC/FBC≥4.0 f. S. maltophilia 1237289 (IHMA), colistin resistant

[8] = system: Methicillin-resistant Staphylococcus aureus (MRSA); assay: Three-step decolonization protocol for MRSA in paediatric patients with cystic fibrosis; format: in vivo; details: patients are to receive a further five-day intravenous treatment to increase the success rate
Procedure: Methicillin-resistant Staphylococcus aureus (MRSA) is a bacterial pathogen in patients with cystic fibrosis (CF) although its clinical effects can be variable. In a three-step decolonization protocol for MRSA 15 paediatric patients are treated during a long follow-up period where 50% are successfully decolonized following one five-day course of i.v. Colistin and fusidic acid. To increase the success rate the patients are to receive a five-day intravenous teicoplanin treatment to clear MRSA colonization to 90-100%.

[9] = system: S. maltophilia 1237289; assay: Checkerboard fusidic acid (FD) and colistin sulfate (CS), MIC/FIC; format: cell-based, Stenotrophomonas maltophilia; details: S. maltophilia 1237289, agent alone, CAMHB, 1*10^6 CFU/ml
Procedure: (§4) Checkerboard assays between fusidic acid (FD) and colistin sulfate (CS) with a bacterial load 5(1-10)*10^5 CFU/ml in cationic adapted Mueller Hinton broth (CAMHB). • a. Antimicrobial stock solutions were prepared using sterile distilled water; • b. CS was added along the ordinate; FD was added along the abscissa to 96 well, flat bottom, polystyrene panels with no treatment. Colistin alone was tested in triplicates; • c. Serial 2-fold dilutions starting with 640 […] CS and 640 μg/ml FD were made; 15 μl volume of the serial dilutions were added for each agent to the appropriate wells—final volume at 30 μl; • d. For each agent tested alone an additional 15 μl media was added to the well. 30 μl were added in control wells where none of the agent was tested. The negative control well contains 150 μl media without any additions; • e. From an overnight bacterial culture in tryptic soy broth, 100 μL was added to 10 mL of fresh tryptic soy broth. This was then incubated at 37° C. for 1.5 hour at 180 rpm; • f. Bacteria in 120 μl CAMHB were added to each well (end concentration 5(1-10)*10^5 CFU/ml); • g. Plates were incubated at 37° C. in an ambient air incubator for 24 h • h. Turbidity at OD600 is determined with a plate photometer • i. By using a one-time inoculator 3 μl from each well of the 96-well plate were transferred to three blood agar plates. The plates were incubated over night at 37° C. in an ambient air incubator; • j. MIC values are defined as lowest concentration which restricts bacterial growth to OD600≤0.1; • k. MBC values were determined by visual reading the lowest concentration which inhibits 99.9% of the growth of bacteria in the wells; • l. Determination of the fractional inhibitory concentration (FIC) index and fractional bactericidal concentration (FBC) index and characterization of antimicrobial interactions was assessed;
(§5) FIC calculation was carried out as: (MIC of drug A, tested in combination)/(MIC of drug A, tested alone)+(MIC of drug B, tested in combination)/(MIC of drug B, tested alone). FBC calculation was carried out just as well;
(§6) Interactive categories were calculated from checkerboard analysis using MIC results from testing each agent alone and MIC results from the combination wells adjacent to the wells with growth in them.
(§7) Determination of the fractional inhibitory concentration (FIC) index and fractional bactericidal concentration (FBC) index and characterization of antimicrobial interactions was assessed:
(§8) (ii) Indifference; FIC/FBC>0.5 to <4.0
(§9) (iii) Antagonism; FIC/FBC≥4.0
e. Stenotrophomonas maltophilia 1237289 (IHMA), colistin resistant (CS 2/4-4/8-8/8)

[10] = system: S. maltophilia 1221783; assay: as above; format: cell-based, Stenotrophomonas maltophilia; details: agent alone, CAMHB, 1*10^6 CFU/ml, 24 h
Procedure: Checkerboard assays between fusidic acid (FD) and colistin sulfate (CS) with a bacterial load 5(1-10)*10^5 CFU/ml in cationic adapted Mueller Hinton broth (CAMHB). • a. Antimicrobial stock solutions were prepared using sterile distilled water; • b. CS was added along the ordinate; FD was added along the abscissa to 96 well, flat bottom, polystyrene panels with no treatment. Colistin alone was tested in triplicates; • c. Serial 2-fold dilutions starting with 640 […] CS and 640 μg/ml FD were made; 15 μl volume of the serial dilutions were added for each agent to the appropriate wells—final volume at 30 μl; • d. For each agent tested alone an additional 15 μl media was added to the well. 30 μl were added in control wells where none of the agent was tested. […] Turbidity at OD600 is determined with a plate photometer • i. […] Determination of the fractional inhibitory concentration (FIC) index and fractional bactericidal concentration (FBC) index and characterization of antimicrobial interactions was assessed; […]
as §6
Determination of the fractional inhibitory concentration (FIC) index and fractional bactericidal concentration (FBC) index and characterization of antimicrobial interactions was assessed: […]

[11] = system: A. guillouiae 1285286; assay: Checkerboard fusidic acid (FD) and colistin sulfate (CS), MIC/FIC and MBC/FBC; format: cell-based, Acinetobacter guillouiae; details: agent alone, CAMHB, 1*10^6 CFU/ml
Procedure: as §4, §5, §6, §7, §8, §9
d. Acinetobacter guillouiae 1285286 (IHMA), colistin resistant (2xCS 2/4)

[12] = system: A. junii 1397597; assay: as above; format: cell-based, Acinetobacter junii; details: agent alone, CAMHB, 1*10^6 CFU/ml
Procedure: as §4, §5, §6, §7, §8, §9
a. Acinetobacter junii 1391597 (IHMA), colistin resistant (CS 2/2-2/8)

[13] = system: A. nosocomialis 1461911; assay: as above; format: cell-based, Acinetobacter nosocomialis; details: A. nosocomialis 1461911, agent alone, CAMHB, 1*10^6 CFU/ml
Procedure: as §4, §5, §6, §7, §8, §9
b. Acinetobacter nosocomialis 1461911 (IHMA), colistin resistant (3xCS 4/8)

[14] = system: A. haemolyticus 1655843; assay: as above; format: cell-based, Acinetobacter haemolyticus; details: agent alone, CAMHB, 1*10^6 CFU/ml
Procedure: as §4, §5, §6, §7, §8, §9
c. Acinetobacter haemolyticus 1655843 (IHMA), colistin resistant (3xCS>16/>16-64/>64)

[15] = after 48 h growth (values in brackets)

Question: Which results are given for teicoplanin [TP]?
Answer: MIC ([1]; A. nosocomialis 1461911, 24 h): >64 µg/mL; MBC ([1]; A. nosocomialis): >64 µg/mL; MIC ([2]; A. haemolyticus 1655843, 24 h): >64 µg/mL; MBC ([2]; A. haemolyticus): >64 µg/mL; terminal half-life, mean (±SD) [3]: 157 (±93) h; terminal half-life, median (range) [3]: 168 (111-278) h; MIC [4]: >64 µg/mL; MIC ([5]; A. guillouiae 1285286, 24 h): >64 µg/mL; MBC ([5]; A. guillouiae): >64 µg/mL; MIC ([6]; A. junii 1397597, 24 h): >64 µg/mL; MBC ([6]; A. junii): >64 µg/mL; MIC ([7]; 24 h): >64 µg/mL; MIC [7, 15]: (>64) mg/l; clear MRSA colonization to [8]: 90-100%

Question: Which results are given for `CC(=O)O[C@H]1C[C@@]2(C)[C@@H](C[C@@H](O)[C@H]3[C@@]4(C)CC[C@@H](O)[C@@H](C)[C@@H]4CC[C@@]32C)/C1=C(\CCC=C(C)C)C(=O)O` [FD, fusidic acid]?
Answer: MIC ([9]; 24 h): >64 mg/1l; MIC [9, 15]: (>64) mg/1l; MIC [10]: 64 mg/1l; MIC ([11]; A. guillouiae 1285286, 24 h): 16 mg/1l; MBC ([11]; Acinetobacter guillouiae, 1285286, A. guillouiae, read-out: MBC): > 64 µg/mL; MIC ([12]; A. junii 1397597, 24 h): 32 mg/1l; MBC ([12]; Acinetobacter junii, 1397597, A. junii 1397597): 64 µg/mL; MIC ([13]; 24 h): >64 mg/1l; MBC ([13]; Acinetobacter nosocomialis): > 64 µg/mL; MIC ([14]; A. haemolyticus 1655843, 24 h): 32 mg/1l; MBC ([14]; Acinetobacter haemolyticus, 1655843, A. haemolyticus 1655843): 64 µg/mL
